Patent EP2999467B1, “USE OF A COMBINATION OF TWO COMPOUNDS FOR THE TREATMENT AND/OR PREVENTION OF BONE DISORDERS” (Institut National de la Recherche Agronomique (INRA), priority 2013, dated 2014)
Like-named read-outs stand apart in the source and are kept apart here.

Assays:
[1] = test system: préostéoblastes primaires; assay: Mineralisation test (alizarin red staining of mineralised nodules); type: cell-based, rats Wistar; settings: Rattus norvegicus, 408 h, 17 days of culture, read-out: minéralisation (nodules minéralisés) par rapport à la condition « AA+βGP seuls »
Source text: (§1) Les préostéoblastes primaires ont été isolés à partir de la calotte crânienne de rats Wistar nouveaux-nés par digestion enzymatique comme précédemment décrit [Declercq, H., Van den Vreken, N., De Maeyer, E., Verbeeck, R., Schacht, E., De Ridder, L., and Cornelissen, M. (2004). Isolation, proliferation and differentiation of osteoblastic cells to study cell/biomaterial interactions: comparison of different isolation techniques and source. Biomaterials 25, 757-68.]. Les précurseurs d'ostéoclastes RAW264.7 ont été obtenus auprès de l'ATCC (Manassas, VA, USA). Les préostéoblastes et les RAW264.7 ont été cultivés dans du milieu α-MEM (Invitrogen, Carlsbad, CA, USA) supplémenté avec 10% de SVF décomplémenté et de 100 unités/ml de pénicilline-streptomycine.
Les préostéoblastes primaires ont été ensemencés à 1,5 * 10^5 cellules par puit dans des plaques 12 puits traitées au collagène. Trente-six heures plus tard, les cellules ont été prétraitées avec du DMSO comme témoin ou de la fisétine (1 à 5 µM) pendant 12 heures, puis induites à se différentier avec 25 µg/ml d'acide ascorbique et 5 mM de bêta-glycérophosphate en présence de DMSO ou de fisétine (1 à 5 µM). Après 17 jours de culture avec un changement des milieux tous les 2 jours, les cellules ont été fixées avec de l'éthanol à 70% et les dépôts de calcium ont été colorés avec une solution à 40 mM d'alizarine rouge (pH 4,2). La zone et l'intensité des nodules ont été quantifiées en utilisant le logiciel ImageJ (http://rsb.info.nih.gov/ij/).

phosphatase alcaline = assay: Quantitative RT-PCR, osteoblast differentiation marker: alkaline phosphatase; type: cell-based, rats Wistar; settings: Rattus norvegicus; for activation at 5 µM: AA+βGP+Fisétine 5µM
Source text: as §1
L'extraction des ARN totaux (cellules et fémurs) a été effectuée en utilisant le réactif TRIzol, la transcription inverse (RT) a été réalisée à l'aide du kit de synthèse d'ADNc Dynamo (Thermo Scientific, Waltham, MA, USA) et l'analyse PCR en temps réel a été réalisée avec le Mastercycler ep Realplex2 (Eppendorf, Hambourg, Allemagne). Toutes les valeurs ont été normalisées par la GAPDH. Les séquences des oligos utilisés sont : ALP F 5'-GGCCAGCTACACCACAACA-3' / ALP R 5'-[…] -3' / OCN F 5'-AGACTCCGGCGCTACCTT -3' / OCN R 5'-[…]-3'/ COL1 F 5'-[…]-3' / COL1 R 5'-[…]-3' / GAPDH F 5'-[…]-3' / GAPDH R 5'-[…]-3'

[2] = test system: perte osseuse induite par ovariectomie; assay: Ovariectomy-induced bone loss: bone micro-architecture (micro-CT); type: in vivo, souris C57BL/6J
Description: Tout au long de l'étude, les animaux ont été logés dans un environnement contrôlé (12:12 h cycle lumière-obscurité, 20-22 ° C, 50-60% d'humidité relative, 1 souris par cage en plastique avec un accès libre à l'eau. Les souris C57BL/6J ont été livrées 2 semaines avant l'étude pour l'acclimatation à notre environnement sous régime standard semi-purifié. Pour toutes les expériences, les souris de 8 semaines (n=12/groupe) ont été gavées avec le véhicule (1% d'éthanol, 0,2% hydroxypropylcellulose dans de l'eau distillée) ou avec la fisétine (5 à 50 mg/kg dans le véhicule) pendant une semaine. Ensuite, pour l'expérience OVX, les souris ont été pseudo-opérées ou ovariectomisées bilatéralement et ont reçu quotidiennement par gavage le véhicule ou la fisétine pendant 4 semaines. A la fin de l'expérimentation, le sérum, les cornes utérines, les tibias et les fémurs ont été recueillis pour analyse. Pour l'expérience de perte osseuse induite par LPS, le véhicule (PBS) ou le LPS (sérotype 026: B6, 25mg/kg) ont été injectés par voie sous-cutanée au niveau de la calotte crânienne, une fois par semaine pendant 3 semaines sous anesthésie. Durant ces 3 semaines, les souris ont reçu soit le véhicule (1% d'éthanol, 0,2% hydroxypropylcellulose dans de l'eau distillée) soit la fisétine quotidiennement par gavage. A la fin de l'expérimentation, le sérum, les tibias et les fémurs ont été recueillis pour analyse. Des expériences similaires ont été conduites et arrêtés 24 heures après la première injection de LPS et les fémurs ont été prélevés pour extraction des ARNs et l'analyse en qRT-PCR.
Pour effectuer une mesure, l'échantillon a été monté sur un plateau tournant pouvant être déplacé automatiquement dans le sens axial (pas angulaire: 0,675°/reconstruction plage angulaire: 186.30°). Un filtre en aluminium (0,5 mm d'épaisseur) a été placé entre la source de rayons X et l'échantillon. La micro-architecture (spongieuse secondaire) a été analysée en utilisant le rayonnement X micro-CT SkyScan 1072 (BRUKER-microCT, Kontich, Belgique). Des photos de 1024 * 1024 pixels ont été obtenues en utilisant les paramètres 37kV et 215µA. Selon les paramètres de la caméra, les pixels mesurent 5.664µm menant à un voxel de 1.817 * 10-7mm^3. Le calcul des paramètres histomorphométriques a été réalisé en utilisant les logiciels ctan ® et Nrecon ® (version 1.11. Et 1.6.1.7 respectivement).

Compound: O=c1c(O)c(-c2ccc(O)c(O)c2)oc2cc(O)ccc12 [Fisétine, 3,3',4',7-tétrahydroxyflavone]
- activation at 1 µM ([1]; AA+βGP+Fisétine 1µM): 62%
- activation at 5 µM ([1]; AA+βGP+Fisétine 5µM): 169%
- activation at 2.5 µM ([1]; AA+βGP+Fisétine 2,5µM): 105%
- activation at 1 µM (phosphatase alcaline; 168 h, AA+βGP+Fisétine 1 µM, J7, read-out: expression de la phosphatase alcaline par rapport à la condition « AA+βGP seuls »): 84%
- activation at 5 µM (phosphatase alcaline; 168 h, J7, read-out: expression de la phosphatase alcaline par rapport à la condition « AA+βGP seuls »): 146%
- activation at 1 µM (phosphatase alcaline; 336 h, AA+βGP+Fisétine 1µM, J14, read-out: expression de la phosphatase alcaline par rapport à la condition « AA+βGP seuls »): 37%
- activation at 5 µM (phosphatase alcaline; 336 h, J14, read-out: expression de la phosphatase alcaline par rapport à la condition « AA+βGP seuls »): 88%
- augmentation de l'épaisseur des trabécules par rapport aux animaux OVX ([2]; OVX + Fisétine 25 mg/kg): 3,55%
- augmentation du nombre de trabécules par rapport aux animaux OVX ([2]; OVX + Fisétine 25 mg/kg): 16,31%
- augmentation du volume osseux/volume total par rapport aux animaux OVX ([2]; OVX + Fisétine 25 mg/kg): 20,37%
- Nombre de trabécules ([2]; OVX + Fisétine 25mg/kg, OVX 1.90 ± 0.22): 2.21 ± 0.12 mm^-1
- Volume osseux/Volume total ([2]; OVX + Fisétine 25mg/kg, OVX 13.40 ± 1.74): 16.13 ± 0.96%
- Epaisseur des trabécules ([2]; OVX + Fisétine 25mg/kg, OVX 70.35 ± 1.295): 72.85 ± 1.563 µm
- Espace inter-trabéculaire ([2]; OVX + Fisétine 25mg/kg, OVX 285.68 ± 54,69): 265.50 ± 29.41 µm
